Some test systems named below: HCC-2998 colon; HCT-116 colon; LOX IMVI melanoma; MALME-3M melanoma; SW-620 colon; UO-31 renal; CAKI-1 renal; DU-145 prostate; NCI-H226 lung; RXF 393 renal.
What all share (assay): inhibition of tumour cell growth, NCI panel, 48 h

SMILES strings stand for the structures. “And” between values parts separate entries of the source, which are not always exact repeats. Equal entries are not always repeated.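 Interpolation was linear, between the two tested concentrations surrounding the appropriate level; five concentrations were tested over 48 hours in 96-well plates. At the GI50, growth is halved. Definition used: TGI = concentration required for complete inhibition of growth.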 Bounds are passed on as bounds.

On to `C/C(=N\NC(=O)c1cccnc1)c1cccc(/C(C)=N/NC(=O)c2cccnc2)n1`, for which the GI50 in the assay on HCC-2998 colon is 2.17 µM; in the assay on HCT-116 colon, 4.24 µM; in the assay with MALME-3M melanoma it was 2.6 µM. For the same molecule, the TGI with HCC-2998 colon was over 100 µM; in the assay on HCT-116 colon, over 100 µM; in the assay on LOX IMVI melanoma, over 100 µM; in the assay on MALME-3M melanoma, 9.81 µM; in the assay with SW-620 colon, over 100 µM; in the assay on UO-31 renal, 80.7 µM.

For `CC(=O)OC1CC(O)CC2=CCC3C4CCC(C(C)(O)C(O)CC5COC(=O)C5C)C4(C)CCC3C21C` (configuration not stated), the TGI in the assay with CAKI-1 renal, with DU-145 prostate, in the assay on HCC-2998 colon, in the assay with HCT-116 colon, with LOX IMVI melanoma and with NCI-H226 lung was over 25 µM in each case. For the same molecule, the TGI in the assay on RXF 393 renal, in the assay on SW-620 colon and with UO-31 renal was over 25 µM throughout.

As to `O=C1c2cc3c(cc2-c2c1c1ccc(Cl)cc1c(=O)n2C[C@H](O)[C@@H](O)[C@H](O)CO)OCO3`, the GI50 in the assay on CAKI-1 renal was 0.0325 µM; in the assay on DU-145 prostate, 0.0374 µM; in the assay with HCC-2998 colon it was 0.0638 µM; in the assay on LOX IMVI melanoma it was 0.0145 µM; in the assay on MALME-3M melanoma, 0.0737 µM; in the assay with RXF 393 renal, 0.0536 µM. In addition, the GI50 is 0.0163 µM in the assay on SW-620 colon and 0.0297 µM in the assay with UO-31 renal. The TGI is 0.4 µM in the assay on CAKI-1 renal; over 100 µM in the assay on DU-145 prostate; 0.479 µM in the assay on HCC-2998 colon; 0.103 µM with LOX IMVI melanoma; 0.505 µM in the assay with MALME-3M melanoma; 0.258 µM with RXF 393 renal. Also, the TGI with SW-620 colon is 0.325 µM; with UO-31 renal, 0.125 µM.

In the case of `CC1(C)CCC2(C(=O)OC3OC(CO)C(O)C(O)C3O)CCC3(C)C(=CCC4C5(C)CCC(OC6OC(CO)C(O)C(O)C6O)C(C)(C)C5CCC43C)C2C1` (configuration not stated), the TGI in the assay on CAKI-1 renal was over 25 µM; with DU-145 prostate it was over 25 µM; in the assay with HCC-2998 colon, 9.83 µM; in the assay on HCT-116 colon, over 25 µM; with LOX IMVI melanoma, 8.51 µM; in the assay with MALME-3M melanoma it was over 25 µM. Further, the TGI in the assay on NCI-H226 lung, in the assay on RXF 393 renal, in the assay with SW-620 colon and in the assay on UO-31 renal was over 25 µM each time.

As to `O=[N+]([O-])c1ccc2c(c1)c(N=NC(=S)NC1CCCCC1)c(O)n2CN1CCOCC1`, the TGI in the assay with CAKI-1 renal was 14.3 µM; with DU-145 prostate it was 26.8 µM; in the assay with HCC-2998 colon, 17.6 µM; with HCT-116 colon, 16.2 µM; in the assay on LOX IMVI melanoma, 19.3 µM; in the assay on MALME-3M melanoma, 24.4 µM. In addition, the TGI in the assay on NCI-H226 lung is 66 µM; with RXF 393 renal, 29 µM; with SW-620 colon, over 100 µM; in the assay on UO-31 renal, 18.4 µM.

For `O=S1(=O)OC(c2ccc(O)cc2)(c2ccc(O)cc2)c2ccccc21`, the TGI in the assay on CAKI-1 renal, in the assay on DU-145 prostate, in the assay on HCC-2998 colon, with HCT-116 colon, in the assay on LOX IMVI melanoma and in the assay with MALME-3M melanoma was over 100 µM each time. The TGI with NCI-H226 lung, in the assay on RXF 393 renal, in the assay with SW-620 colon and in the assay with UO-31 renal was over 100 µM in each case.

In the case of `Clc1ccc(Nc2nc(Cl)c3[nH]cnc3n2)cc1Cl`, the TGI is 16.6 µM in the assay on CAKI-1 renal; over 100 µM in the assay with DU-145 prostate; 31.1 µM in the assay on HCC-2998 colon; 86.7 µM with HCT-116 colon; 34.1 µM in the assay with LOX IMVI melanoma; over 100 µM in the assay on MALME-3M melanoma. The TGI is over 100 µM in the assay with NCI-H226 lung, 81.2 µM in the assay on RXF 393 renal, over 100 µM with SW-620 colon and 66.6 µM with UO-31 renal.

Turning to `O=[n+]1c2c(n([O-])c3ccccc31)-c1cccc3cccc-2c13`, the TGI in the assay on DU-145 prostate, in the assay on HCC-2998 colon, in the assay on HCT-116 colon, with LOX IMVI melanoma, with NCI-H226 lung and in the assay on RXF 393 renal was over 100 µM in each case. Besides, the TGI with SW-620 colon and with UO-31 renal was over 100 µM each time.

On to `CCOC(=O)/C(=C\NCC(OCC)OCC)c1nc2ccccc2[nH]1`, for which the TGI was over 100 µM in the assay on CAKI-1 renal; over 100 µM in the assay on DU-145 prostate; 51.3 µM with HCC-2998 colon; over 100 µM with HCT-116 colon; 55.4 µM in the assay on LOX IMVI melanoma; 61.5 µM in the assay on MALME-3M melanoma. In addition, the TGI in the assay with NCI-H226 lung, with RXF 393 renal, in the assay on SW-620 colon and in the assay with UO-31 renal was over 100 µM each time.

Consider `CCOC(=O)C1CCn2c(nc3c2c(=O)n(C)c(=O)n3C)S1` (configuration not stated), for which the TGI in the assay with CAKI-1 renal, in the assay on HCT-116 colon, in the assay with LOX IMVI melanoma, in the assay on MALME-3M melanoma, in the assay on NCI-H226 lung and in the assay with RXF 393 renal was over 100 µM throughout. The TGI with SW-620 colon is over 100 µM.

Turning to `N[C@H]1CCN(c2c(F)cc3c(=O)c(C(=O)O)cn4c3c2Oc2cc3c(ccc5ccccc53)cc2-4)C1`, the TGI in the assay with CAKI-1 renal was over 100 µM; in the assay with DU-145 prostate, over 100 µM; with HCC-2998 colon, 6.82 µM; in the assay with HCT-116 colon it was over 100 µM; in the assay with LOX IMVI melanoma, over 100 µM; in the assay with MALME-3M melanoma it was over 100 µM. Moreover, the TGI is 58.5 µM in the assay on NCI-H226 lung, over 100 µM with RXF 393 renal, over 100 µM in the assay on SW-620 colon and over 100 µM in the assay on UO-31 renal.

Take `CC[C@@]1(O)C(=O)OCc2c1cc1n(c2=O)Cc2c-1nc1ccc(O)cc1c2CC[Si](C)(C)C`: the TGI is 0.00129 µM in the assay with DU-145 prostate; 0.0641 µM and 0.0601 µM with HCC-2998 colon; 0.114 µM with LOX IMVI melanoma; 1.41 µM with MALME-3M melanoma; 0.0494 µM and 0.0625 µM in the assay with RXF 393 renal; over 100 µM with SW-620 colon. The TGI in the assay with UO-31 renal was 0.123 µM and 0.0795 µM. Also, the GI50 with NCI-H226 lung is under 0.001 µM.

As for `COc1c2c(cc3c1C(O)N1CC[C@]34[C@H]3O[C@H]3[C@H](OC)C[C@@H]14)OCO2` (some centres not stated), the TGI in the assay on CAKI-1 renal, in the assay on DU-145 prostate, in the assay on HCC-2998 colon, in the assay on HCT-116 colon, in the assay on LOX IMVI melanoma and in the assay on MALME-3M melanoma was over 100 µM throughout. Further, the TGI with NCI-H226 lung, with RXF 393 renal, in the assay on SW-620 colon and in the assay on UO-31 renal was over 100 µM each time.

The values above are taken from PubChem BioAssay (NCI).
